Source: patent publication US20150039274A1, “SYSTEM AND METHOD FOR PERSONALIZED METABOLIC MODELING” (Ramot at Tel-Aviv University Ltd., priority 2013, published 2015)

Test system: RPMI-8226 cells
Assay: Cell proliferation of RPMI-8226 cells with doxycycline-inducible MLYCD shRNA, with or without N-acetyl-cysteine
Format: cell-based, human
Settings: RPMI-8226 shRNA cells; 2 mM N-Acetyl Cysteine
Description: HapMap cells (GM06997, CEPH/UTAH pedigree 13291) were obtained from Coriell Institute and RPMI-8226 and K562 cells were obtained from NCI-Frederick Cancer DCTD Tumor/Cell line Repository. Cells were grown in RPMI 1640 plus 10% fetal bovine serum (FBS) in the presence of 5% carbon dioxide. Cell count was determined using a CASY Cell Counter (Roche Applied Science). Where indicated, cells were incubated with 2 mM N-acetyl-cysteine.
The viral supernatant for infection was obtained from the filtered growth media of the packaging cells HEK293T transfected with 3 μg psPAX, 1 μg pVSVG, 4 μg of shRNA contructs and 24 μl Lipofectamine 2000 (Life Technology) and the relevant shRNAs. 5×10^5 cells were then plated on 6-well plates and infected with the viral supernatant in the presence of 4 μg/mL polybrene. After two days, the medium was replaced with selection medium containing 2 μg/mL puromycin.
The expression of the shRNA constructs was induced by incubating cells with 2 μg/mL Doxycyclin.

CC(=O)N[C@@H](CS)C(=O)O [N-Acetyl-cysteine]
cell proliferation of MLYCD-deficient cells in the presence of antioxidant: restored the proliferative defects
